Test results from patent US20220267380A1, “Glycopeptides Increasing Lipid Synthesis” (TFCHEM, priority 2019, published 2022).

System: normal human dermal fibroblasts (NHDF)
Assay: Gene expression in NHDF, full transcriptome analysis with Affymetrix U219 microarray
Format: cell-based
Details: NHDF, 7.5 mg/ml, 24 h
Experimental: In the present study, the transcriptional effects (modulation of gene expression) of compounds 1, 2, 3 and 4 were evaluated on normal human dermal fibroblasts (NHDF) under basal conditions.
More specifically, the comparative analysis of the different transcriptomic profiles was performed using an Affymetrix GeneAtlas platform and the human “full transcriptome” U219 chip, which includes 36,000 transcripts and variants.
Fibroblasts were seeded in 24-well plates and cultured in culture medium for 24 hours. The medium was then replaced by assay medium and cells were incubated for further 24 hours. The medium was replaced by assay medium containing or not (control) the test compounds at different concentrations and the cells were preincubated for 24 hours. All experimental conditions were performed in triplicate. At the end of incubation, the culture supernatants were removed and the cells were washed in a phosphate buffered saline (PBS) solution and immediately frozen at −80° C.
Before RNA extraction, the replicates were pooled. Total RNA was extracted from each sample using TriPure Isolation Reagent® according to the supplier's instructions. The amount and quality of total RNA were evaluated for all samples using capillary electrophoresis (Bioanalyzer 2100, Agilent technologies). From each RNA, a labeled and amplified anti-sens RNA (aRNA) was obtained using GeneChip 3′IVT PLUS Kit (Affymetrix). For each labeled and amplified aRNA sample the profiles were evaluated before and after fragmentation using capillary electrophoresis (Bioanalyzer 2100, Agilent technologies). Hybridization of fragmented aRNA onto Affymetrix® U219 chip (36,000 transcripts and variants) was performed in the GeneAtlas™ fluidics Affymetrix® hybridization station for 20 hours at 45° C. U219 chip was analyzed using the GeneAtlas™ Imaging station (Affymetrix®—resolution 2 μm) to generate fluorescence intensity data.
Expression Console and Quality controls: data were normalized with the Expression Console (Affymetrix®) software using RMA algorithm. Then a quality control of the labeling and the hybridization was performed. Hybridization and labeling steps successfully passed the quality controls for these experiments.
Data reduction, Excel file description: once normalized with Expression Console, data were transferred into a Microsoft Excel® file in order to go further into data reduction.
Calculation and tools were added in order to rank and sort data, and finally to support data interpretation. Detection thresholds in terms of fold change were defined and applied on normalized data.
Results are considered and presented or commented per gene (and not probe). A probe set is a collection of probes designed to interrogate a given sequence of a gene. For data interpretation, the most important relative expression value obtained with one probe is considered to be representative of the corresponding gene. The file contains the following data: • Relative expression (RE) for each sample, • Fold change calculation, • Gene information.

[1] = relative expression adjusted to detection limit (<20)

Structure (SMILES): C[C@H](NC(=O)[C@@H](N)CCCCNCC(F)(F)[C@]1(O)O[C@H](CO)[C@H](O)[C@H](O)[C@H]1O)C(=O)O [Compound 2]
- Fold change, APOD (vs control): 0.50
- Fold change, DHCR24 (vs control): 2.13
- Fold change, HACD1 (vs control): 2.01
- Fold change, NEU1 (vs control): 2.18
- Fold change, SERINC2 (vs control): 2.09
- Fold change, TM7SF2 (vs control): 2.18
- Fold change, TXNRD1 (vs control): 2.07
- Fold change, SCD (vs control, Affymetrix probe set 11715561_s_at): 2.01
- Fold change, SCD (vs control, Affymetrix probe set 11715562_x_at): 2.02
- Fold change, SCD (vs control, Affymetrix probe set 11715563_s_at): 2.07
- Fold change, FADS1 (vs control, Affymetrix probe set 11752670_a_at): 2.04
- Fold change, FADS1 (vs control, Affymetrix probe set 11755251_x_at): 2.19
- REadj2, APOD [1]: 174.26
- REadj2, DHCR24 [1]: 178.12
- REadj2, HACD1 [1]: 516.24
- REadj2, NEU1 [1]: 495.48
- REadj2, SERINC2 [1]: 245.33
- REadj2, TM7SF2 [1]: 88.53
- REadj2, TXNRD1 [1]: 1384.05
- REadj2, SCD (relative expression adjusted to detection limit (<20), Affymetrix probe set 11715561_s_at): 277.57
- REadj2, SCD (relative expression adjusted to detection limit (<20), Affymetrix probe set 11715562_x_at): 302.56
- REadj2, SCD (relative expression adjusted to detection limit (<20), Affymetrix probe set 11715563_s_at): 241.64
- REadj2, FADS1 (relative expression adjusted to detection limit (<20), Affymetrix probe set 11752670_a_at): 1734.26
- REadj2, FADS1 (relative expression adjusted to detection limit (<20), Affymetrix probe set 11755251_x_at): 1114.87
